Measured values as given in US5428059A, “Benzopyran derivatives and an anti-allergic agent possessing the same as the active ingredient” (Dainippon Ink & Chemicals, Inc., priority 1991, dated 1995).

The compounds below were run on Hartley-type male guinea pigs (assay: Guinea Pig Homogeneous Skin Passive Anaphylaxis Assay (PCA reaction)). Conditions: Cavia porcellus, 10 mg/kg oral, 48 h after sensitization, read-out: Allergic reaction inhibitory index (%).
Format: in vivo, guinea pig (Hartley-type)
Experimental: In order to confirm the anti-allergic action of the compounds according to the present invention, as an anti-allergic action confirmation assay, the widely used Guinea Pig Homogeneous Skin Passive Anaphylaxis Assay (PCA Reaction Assay; Passive Cutaneous Anaphylaxis Reaction Assay) was carried out. The assay method used will be explained in the following.
Assay method: Hartley-type male guinea pigs (body weight: 250~300 g) were sensitized by the following procedure; a mixture of 2 μg of egg albumin (OVA) and 5 μg of aluminium hydroxide gel was administered intraperitoneally 3 times every 2 weeks, and the anti-OVA blood serum was manufactured.
The anti-blood serum obtained was then diluted 120 times using physiological saline solution, and then to groups each containing 6 shaved guinea pigs, was injected at a quantity of 0.05 ml respectively, into two positions in the back portion, inside the skin of each animal.
After the 48th hour of sensitization, 10 mg/kg of the test substance to be tested was orally administered, following which a mixture of 2 mg OVA and 5 mg of Evans Blue was administered by intraveneous injection into the hind leg, triggering the anaphylaxis reaction. As the positive control, Tranilast, a well known anti-allergic agent, was used, and in the same manner as the substances to be tested, 100 mg/kg of it was orally administered after the 48th hour of sensitization.
30 minutes after triggering the reaction, the animals were bled to death under ether anesthesia, and their back portion skins were peeled off. The long and short diameters of pigment leakage spots on the interior surface of the skins were measured, and the product of these (mm^2) were entered into formula 1 as "pigment leakage amount", from which the allergic reaction inhibitory index wins calculated. [formula]
I: Allergic reaction inhibitory index (%)
A: Pigment leakage amount of solvent control group
B: Pigment leakage amount of test substance group
C: Pigment leakage amount of […]
With COc1ccc2c(OC(C)C)c(OC/C=C(\C)CCC=C(C)C)c(=O)oc2c1 [Compound 41, 3-(geranyloxy)-4-(isopropoxy)-7-(methoxy)-2H-1-benzopyran-2-one] the inhibition in vivo at 10 mg/kg was 30%.
Compound COc1ccc2c(OC/C=C(\C)CCC=C(C)C)c(OC)c(=O)oc2c1 [Compound 42, 3,7-(dimethoxy)-4-(geranyloxy)-2H-1-benzopyran-2-one] has an inhibition in vivo at 10 mg/kg of 33%.
COc1ccc2c(OC/C=C(\C)CCC=C(C)C)c(OC/C=C(\C)CCC=C(C)C)c(=O)oc2c1 [Compound 43, 3,4-(digeranyloxy)-7-(methoxy)-2H-1-benzopyran-2-one] was tested, and the inhibition in vivo at 10 mg/kg was 30%.
With CC(C)Oc1ccc2c(O)c(OC(=O)c3ccccc3)c(=O)oc2c1 [Compound 44, 3-(benzoyloxy)-4-(hydroxy)-7-(isopropoxy)-2H-1-benzopyran-2-one] the inhibition in vivo at 10 mg/kg was 37%.
In the case of CC(C)Oc1ccc2c(O)c(O)c(=O)oc2c1 [Compound 45, 3,4-dihydroxy-7-(isopropoxy)-2H-1-benzopyran-2-one], the inhibition in vivo at 10 mg/kg is reported as 58%.
With CC(=O)Oc1c(O)c(=O)oc2cc(OC(C)C)ccc12 [Compound 46, 3-hydroxy-4-(acetoxy)-7-(isopropoxy)-2H-1-benzopyran-2-one] the inhibition in vivo at 10 mg/kg was 34%.
With CC(C)Oc1ccc2c(OC(=O)c3ccccc3)c(OC(=O)c3ccccc3)c(=O)oc2c1 [Compound 47, 3,4-(dibenzoyloxy)-7-(isopropoxy)-2H-1-benzopyran-2-one] the inhibition in vivo at 10 mg/kg was 31%.
With CCCCCCCCCCOc1c(O)c2ccc(OC(C)C)cc2oc1=O [Compound 48, 3-(decyloxy)-4-hydroxy-7-(isopropoxy)-2H-1-benzopyran-2-one] the inhibition in vivo at 10 mg/kg was 42%.
Work on COc1c(O)c(=O)oc2cc(OC(C)C)ccc12 [Compound 49, 3-hydroxy-4-(methoxy)-7-(isopropoxy)-2H-1-benzopyran-2-one] yielded an inhibition in vivo at 10 mg/kg of 36%.
Compound CCCCCCCCCCOc1c(OC)c(=O)oc2cc(OC(C)C)ccc12 [Compound 50, 3-(methoxy)-4-(decyloxy)-7-(isopropoxy)-2H-1-benzopyran-2-one] has an inhibition in vivo at 10 mg/kg of 33%.
In the case of COc1c(OC(C)=O)c(=O)oc2cc(OC(C)C)ccc12 [Compound 51, 3-(acetoxy)-4-(methoxy)-7-(isopropoxy)-2H-1-benzopyran-2-one], the inhibition in vivo at 10 mg/kg is reported as 30%.
CC(C)Oc1ccc2c(OC(=O)c3ccccc3)c(OC(C)C)c(=O)oc2c1 [Compound 52, 3,7-(diisopropoxy)-4-(benzoyloxy)-2H-1-benzopyran-2-one] was tested, and the inhibition in vivo at 10 mg/kg was 32%.
CC(C)=CCC/C(C)=C/COc1c(O)c2ccc(OC(C)C)cc2oc1=O [Compound 53, 3-(geranyloxy)-4-hydroxy-7-(isopropoxy)-2H-1-benzopyran-2-one] was tested, and the inhibition in vivo at 10 mg/kg was 38%.
CC(C)=CCC/C(C)=C/COc1c(O)c(=O)oc2cc(OC(C)C)ccc12 [Compound 54, 3-hydroxy-4-(geranyloxy)-7-(isopropoxy)-2H-1-benzopyran-2-one] was tested, and the inhibition in vivo at 10 mg/kg was 32%.
In the case of CC(C)=CCC/C(C)=C/COc1c(OC(C)C)c2ccc(OC(C)C)cc2oc1=O [Compound 55, 3-(geranyloxy)-4,7-(diisopropoxy)-2H-1-benzopyran-2-one], the inhibition in vivo at 10 mg/kg is reported as 33%.
For COc1c(OC/C=C(\C)CCC=C(C)C)c2ccc(OC(C)C)cc2oc1=O [Compound 56, 3-(methoxy)-4-(geranyloxy)-7-(isopropoxy)-2H-1-benzopyran-2-one], the inhibition in vivo at 10 mg/kg was 31%.
Work on CC(C)=CCC/C(C)=C/COc1c(OC/C=C(\C)CCC=C(C)C)c2ccc(OC(C)C)cc2oc1=O [Compound 57, 3,4-(digeranyloxy)-7-(isopropoxy)-2H-1-benzopyran-2-one] yielded an inhibition in vivo at 10 mg/kg of 30%.
CCCCCCCCCCOc1ccc2c(O)c(OC(=O)c3ccccc3)c(=O)oc2c1 [Compound 58, 3-(benzoyloxy)-4-hydroxy-7-(decyloxy)-2H-1-benzopyran-2-one] gave an inhibition in vivo at 10 mg/kg of 38%.
Compound CCCCCCCCCCOc1ccc2c(O)c(O)c(=O)oc2c1 [Compound 59, 3,4-(dihydroxy)-7-(decyloxy)-2H-1-benzopyran-2-one] has an inhibition in vivo at 10 mg/kg of 47%.
